# Test results published in patent US20220193253A1, “SLOW-RELEASE CYTOKINE CONJUGATES” (ProLynx LLC, priority 2019, published 2022).
# Columns and labels:
# IL-2Rαβγ = target: T1, IL-2Rαβγ (Homo sapiens, UniProt P01589+P14784+P31785); experiment: U2OS cell-based assay kit for IL-2Rαβγ binding (DiscoverX)
# T1 construct: host or cells: U2OS
# T1 sequence (P01589 22-272): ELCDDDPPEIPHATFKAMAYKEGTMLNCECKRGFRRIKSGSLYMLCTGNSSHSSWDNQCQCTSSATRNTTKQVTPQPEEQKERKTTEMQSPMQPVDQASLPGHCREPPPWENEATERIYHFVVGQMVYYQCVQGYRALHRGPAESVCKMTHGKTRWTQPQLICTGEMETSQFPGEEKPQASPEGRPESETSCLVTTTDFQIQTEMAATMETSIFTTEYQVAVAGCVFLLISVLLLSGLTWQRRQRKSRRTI
# T1 sequence (P14784 27-551): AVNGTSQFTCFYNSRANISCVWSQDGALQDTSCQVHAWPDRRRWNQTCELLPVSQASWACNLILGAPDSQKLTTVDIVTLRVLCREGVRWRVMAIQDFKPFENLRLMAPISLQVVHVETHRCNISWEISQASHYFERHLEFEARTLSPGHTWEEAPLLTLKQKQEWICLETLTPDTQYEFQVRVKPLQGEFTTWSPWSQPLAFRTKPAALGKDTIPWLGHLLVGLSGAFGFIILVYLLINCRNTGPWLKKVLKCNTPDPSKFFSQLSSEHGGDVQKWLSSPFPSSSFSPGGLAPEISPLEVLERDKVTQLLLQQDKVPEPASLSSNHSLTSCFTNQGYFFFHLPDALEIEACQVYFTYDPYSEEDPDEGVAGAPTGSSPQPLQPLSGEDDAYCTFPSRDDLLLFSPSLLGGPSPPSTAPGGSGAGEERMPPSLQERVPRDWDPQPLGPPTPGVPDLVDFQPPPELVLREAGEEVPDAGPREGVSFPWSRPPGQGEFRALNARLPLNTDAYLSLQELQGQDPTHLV
# T1 sequence (P31785 23-369): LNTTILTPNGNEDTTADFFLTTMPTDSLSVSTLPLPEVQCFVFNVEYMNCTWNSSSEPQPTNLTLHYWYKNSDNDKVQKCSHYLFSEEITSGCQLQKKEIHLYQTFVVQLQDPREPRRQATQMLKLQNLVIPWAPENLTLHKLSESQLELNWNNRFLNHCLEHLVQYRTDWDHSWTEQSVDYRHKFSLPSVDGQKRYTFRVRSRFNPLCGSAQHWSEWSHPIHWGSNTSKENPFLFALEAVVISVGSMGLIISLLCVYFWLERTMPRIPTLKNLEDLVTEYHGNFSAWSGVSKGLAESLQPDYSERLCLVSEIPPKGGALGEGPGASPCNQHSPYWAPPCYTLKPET
# Protocol: (§1) IL-2[N88R,C125S] was prepared by expression in HEK cells. Cell-based receptor binding assays were performed to evaluate the activity of the mutein against the high-affinity αβγ trimeric (Treg) and intermediate affinity βγ dimeric (Teff) forms of the IL-2 receptor (Table 1). The mutein binds only 6-fold poorer than IL-2 to the IL-2Rαβγ but about 900-fold poorer to the IL-2Rβγ.
# A U2OS cell-based assay kit for IL-2Rαβγ binding was performed according the manufacturer's instructions (DiscoverX, Part #93-1003E3CP0). Cells were plated at 100 μL (˜10,000 cells/well) in 96 well assay plates and grown for 24 hours at 37° C., 5% CO2. Cells were then treated for 6 hours at 37° C., 5% CO2 with dilution series of either WT IL-2, IL-2 N88R, C125S, or IL-2 N88R, C125S released from microspheres at pH 9.4. Eleven WT IL-2 concentrations were assayed between 2 pg/mL-100 ng/mL (0.1 pM-6 nM). Eleven IL-2 N88R, C125S and released IL-2 N88R, C125S concentrations were assayed between 200 pg/mL-10 μg/mL ([…]-600 nM). Treated cells were incubated with chemiluminescent substrate for 1 hour at ambient temperature in the dark, then luminescence was read with a Spectramax i3 plate reader with 250 ms integration time.
# IL-2Rβγ = target: T2, IL-2Rβγ (Homo sapiens, UniProt P14784+P31785); experiment: U2OS cell-based assay kit for IL-2Rβγ binding (DiscoverX); details: mutein vs WT IL-2
# T2 construct: host or cells: U2OS
# T2 sequence (P14784 27-551): T1 sequence (P14784 27-551)
# T2 sequence (P31785 23-369): T1 sequence (P31785 23-369)
# Protocol: as §1
# A U2OS cell-based assay kit for IL-2Rβγ binding was performed according the manufacturer's instructions (DiscoverX, Part #93-0998E3CP5). Cells were plated at 50 μL (˜5,000 cells/well) in 96 well assay plates and grown for 48 hours at 37° C., 5% CO2. Cells were then treated for 6 hours at 37° C., 5% CO2 with dilution series of either WT IL-2, IL-2 N88R, C125S, or IL-2 N88R, C125S released from microspheres at pH 9.4. Eleven WT IL-2 concentrations were assayed between 17 pg/mL-1 μg/mL (1 pM-61 nM). Eleven IL-2 N88R, C125S concentrations were assayed between 1.7 ng/mL-100 μg/mL ([…]-6 μM). Eleven released remnant IL-2 N88R, C125S concentrations were assayed between 170 pg/mL-10 μg/mL ([…]-600 nM). Treated cells were incubated with chemiluminescent substrate for 1 hour at ambient temperature in the dark, then luminescence was read with a Spectramax i3 plate reader with 250 ms integration time.
# [1] = system: T-cells in the spleen and islets; experiment: Pharmacodynamics of IL2 and IL2[N88R,C125S] in NOD mice (flow cytometry of spleen and islets); assay type: in vivo; details: daily injections 25,000 units for five days
# Protocol: Mice were sacrificed 2 hours after the last injection and the spleen and pancreas were harvested for flow cytometry analysis to measure changes in total number of T-cells and their differentiation in the spleen and islets.
# [2] = system: CD8+ memory T cells and NK cells in PBMCs; experiment: Pharmacodynamics of [aminopropyl]-RLI released from microsphere conjugate; assay type: in vivo, C57Black mice
# Protocol: The pharmacodynamics of the MS-RLI conjugate (34 μg, 1.5 nmol) was compared to that of empty MSs, and free RLI (2.5 μg, QDx4) in C57Black mice (n=5/group). Blood draws were taken over 13 days and the PBMCs surface stained using general laboratory procedures. Fixation and intracellular staining followed protocols from the eBioscience Foxp3/Transcription Factor Staining Buffer Set (ThermoFisher Scientific). Commercial antibodies used were against NK1.1, CD3, CD8, CD19, CD44 and Ki-67 expressing cells. Stained single cell suspension were analyzed using a LSRII flow cytometer (BD Biosciences) and analyzed using FlowJo cytometry analysis software (TreeStar, Ashland, Oreg.). Cell populations of particular interest were CD8+ memory T cells (CD44^hiCD8+), natural killer (CD3-NK1.1+) cells, proliferating CD8+ memory T cells (CD44^hiCD8+Ki-67+), and proliferating natural killer (CD3-NK1.1+Ki-67+) cells.
# [3] = in vivo; cited from earlier work
Substance,Fold-change βγ EC50 vs αβγ EC50 (selectivity for IL-2Rαβγ vs IL-2Rβγ) (IL-2Rαβγ),Fold-change of βγ EC50 vs WT IL-2 (fold poorer binding) (IL-2Rβγ),effect on CD4+ and CD8+ effector/memory T-cells in the spleen [1],effect on the T-cells in the islets compared to PBS vehicle [1],day of return of CD44hiCD8+ T cells to baseline levels ([2]; 2.5 μg QDx4) [days],"fold increase in the percentage of NK cells in the PBMCs ([2]; MS-RLI 34 μg single, free RLI 2.5 μg QDx4) [fold]","time post treatment at which increase in CD44hiCD8+ T cells was noticeable ([2]; MS-RLI 34 μg single, native RLI 2.5 μg QDx4) [days]",half-life of free RLI [3] [h]
"IL-2 N88R, C125S: IL-2 mutein, SEQ ID No: 3, prepared by expression in HEK cells","over 3,000 fold",about 900 fold,little to no effect,little to no effect,,,,
"RLI: receptor-linked interleukin: fusion protein comprising IL-15 and the sushi-domain of the receptor α-subunit, SEQ ID No: 16",,,,,≤ 7,~4,5,3
